ChEMBL document CHEMBL2150872, “A transcription factor hijacking to regulate RARα by using a chimeric molecule of retinoic acid and a DNA alkylator” (Bioorg Med Chem Lett, 2011)
Calls of active or inactive are those of the source. The calls are words filed in the database; no cut-off is given here.

Assays:
[1] = tested on: Nucleic Acid; assay: Binding affinity to [gamma-32P]-5'-end labeled pUC18 DNA fragment assessed as alkylation at N7 positions of guanine base by strand-breakage assay; assay type: nucleic-acid assay
[2] = Induction of RARalpha recruitment to [gamma-32P]-5'-end labeled pUC18 DNA fragment at 1 mM after 30 mins by EMSA
[3] = tested on: Nucleic Acid; assay: Binding affinity to [gamma-32P]-5'-end labeled pUC18 DNA fragment by autoradiography; assay type: nucleic-acid assay
[4] = Induction of RARalpha recruitment to [gamma-32P]-5'-end labeled pUC18 DNA fragment at 10 mM after 30 mins by EMSA
[5] = molecular target: T1, Retinoic acid receptor alpha (Homo sapiens) (UniProt P10276); assay: Inhibition of transactivation of RARalpha overexpressed in COS cells after 24 hrs by luciferase reporter gene assay in presence of ATRA; assay type: cell-based
T1 sequence (whole entry): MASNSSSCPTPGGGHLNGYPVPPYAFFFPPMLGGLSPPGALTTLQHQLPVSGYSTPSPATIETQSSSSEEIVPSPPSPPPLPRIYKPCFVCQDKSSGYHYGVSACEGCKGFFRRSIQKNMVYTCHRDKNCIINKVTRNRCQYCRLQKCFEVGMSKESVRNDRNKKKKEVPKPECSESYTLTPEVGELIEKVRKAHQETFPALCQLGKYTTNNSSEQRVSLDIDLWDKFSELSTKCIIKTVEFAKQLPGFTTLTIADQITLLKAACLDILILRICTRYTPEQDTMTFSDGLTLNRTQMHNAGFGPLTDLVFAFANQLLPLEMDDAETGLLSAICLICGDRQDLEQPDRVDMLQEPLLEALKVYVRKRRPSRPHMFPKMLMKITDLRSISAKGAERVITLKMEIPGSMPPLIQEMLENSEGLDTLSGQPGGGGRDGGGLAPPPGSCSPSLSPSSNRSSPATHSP

[6] = molecular target: T1, Retinoic acid receptor alpha (Homo sapiens); assay: Displacement of [3H]ATRA from RARalpha overexpressed in COS cell extract at 10 nM after 12 hrs by liquid scintillation counting; assay type: cell-free
[7] = molecular target: T1, Retinoic acid receptor alpha (Homo sapiens); assay: Displacement of [3H]ATRA from RARalpha overexpressed in COS cell extract after 12 hrs by liquid scintillation counting; assay type: cell-free

SMILES | Activity [1] | Activity [2] | Activity [3] | Activity [4] | inhibition [5] | Activity [6] | Activity [7]
O=C(O)CCCc1ccc(N(CCCl)CCCl)cc1 | Active | inactive | – | – | – | – | –
CC1=C(/C=C/C(C)=C/C=C/C(C)=C/C(=O)NCCCc2ccc(N(CCCl)CCCl)cc2)C(C)(C)CCC1 | Active | – | Active | Active | Dose-dependent effect | Active | Dose-dependent effect
